Columns and labels:
[1] = test system: MDA-MB-231 (breast cancer); assay: MTT antiproliferative assay, MDA-MB-231; type: cell-based; conditions: Homo sapiens, MDA-MB-231, 10 μM, 48 or 72 h, read-out: inhibition of cell growth, MDA-MB-231
How it was run: (§1)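 Cells seeded at 2,000-5,000/well were treated with compound at 0.137 to 100 μM or a single 10 μM for 48 or 72 h at 37° C. MTT was added for a further 4 h, formazan dissolved in DMSO and absorbance read at 490 nm; viability was expressed relative to DMSO vehicle.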

[2] = test system: HeLa (ovarian cancer); assay: MTT antiproliferative assay, HeLa; type: cell-based; conditions: Homo sapiens, 48 or 72 h, read-out: inhibition of cell growth, HELA
How it was run: as §1

[3] = test system: SW620 (colon cancer); assay: MTT antiproliferative assay, SW620; type: cell-based; conditions: Homo sapiens, SW-620, SW620, 10 μM, 48 or 72 h, read-out: inhibition of cell growth, SW620
How it was run: as §1

[4] = test system: A549 (lung adenocarcinoma); assay: MTT antiproliferative assay, A549; type: cell-based; conditions: Homo sapiens, A549, 10 μM, 48 or 72 h, read-out: inhibition of cell growth, A549
How it was run: as §1

[5] = test system: A375 (malignant melanoma); assay: MTT antiproliferative assay, A375; type: cell-based; conditions: Homo sapiens, A-375, A375, 10 μM, 48 or 72 h, read-out: inhibition of cell growth, A375
How it was run: as §1

[6] = test system: HepG2 (liver cancer); assay: MTT antiproliferative assay, HepG2; type: cell-based; conditions: Homo sapiens, HepG2, 10 μM, 48 or 72 h, read-out: inhibition of cell growth, HepG2
How it was run: as §1

[7] = test system: A431 (epidermoid carcinoma); assay: MTT antiproliferative assay, A431; type: cell-based; conditions: Homo sapiens, A-431, A431, 10 μM, 48 or 72 h, read-out: inhibition of cell growth, A431
How it was run: as §1

[8] = molecular target: Nur77-LBD (Homo sapiens, UniProt P22736); assay: Surface plasmon resonance (SPR) binding to Nur77-LBD; conditions: BIAcore T200, 25° C., 1:1 Langmuir binding mode, read-out: Kd when binding to the Nur77-LBD protein
Method: A test compound was analyzed for its binding kinetics with Nur77-LBD at 25° C. on a BIAcore T200 machine with CM5 chips. PBSP was used for all measurements. For SPR measurements, Nur77-LBD proteins were purified. A blank channel was used as negative control. About 10,000 response units of Nur77-LBD were immobilized on the chips. When the data collection was finished in each cycle, the sensor surface was regenerated with glycine-HCl at pH 2.5. A serial of concentrations ranging from 0.15 to 5.0 μM of the test compound was used. Sensograms were fit globally with BIAcore T200 analysis using 1:1 Langmuir binding mode.

Sequence of Nur77-LBD (P22736 360-595 limits assumed, species assumed): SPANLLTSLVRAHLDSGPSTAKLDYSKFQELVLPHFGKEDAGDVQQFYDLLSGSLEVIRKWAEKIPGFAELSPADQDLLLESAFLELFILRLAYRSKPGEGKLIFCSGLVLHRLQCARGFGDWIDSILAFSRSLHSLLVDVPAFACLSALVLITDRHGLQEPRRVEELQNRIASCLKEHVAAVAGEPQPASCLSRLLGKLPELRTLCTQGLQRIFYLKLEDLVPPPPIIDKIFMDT

SMILES: CO[C@]1(C)C(=O)C(=O)C=C2C1=CC=C1[C@@]2(C)CC[C@@]2(C)[C@@H]3C[C@](C)(C(=O)O)CC[C@]3(C)CC[C@]12C [Compound A1, (2R,4aS,6aS,9S,12bR,14aS,14bR)-9-methoxy-2,4a,6a,9,12b,14a-hexamethyl-10,11-dioxo-1,2,3,4,4a,5,6,6a,9,10,11,12b,13,14,14a,14b-hexadecahydropicene-2-carboxylic acid]
- inhibition at 10 µM [1]: 50 to 80%
- inhibition at 10 µM [2]: ≥ 80%
- inhibition at 10 µM [3]: 50 to 80%
- inhibition at 10 µM [4]: 30 to 50%
- inhibition at 10 µM [5]: 30 to 50%
- inhibition at 10 µM [6]: 50 to 80%
- inhibition at 10 µM [7]: 50 to 80%
- Kd [8]: 0.39 µM

SMILES: CNC(=O)[C@]1(C)CC[C@]2(C)CC[C@]3(C)C4=CC=C5C(=CC(=O)C(=O)[C@@]5(C)OC)[C@]4(C)CC[C@@]3(C)[C@@H]2C1 [Compound A7, (2R,4aS,6aS,9S,12bR,14aS,14bR)-9-methoxy-N,2,4a,6a,9,12b,14a-heptamethyl-10,11-dioxo-1,2,3,4,4a,5,6,6a,9,10,11,12b,13,14,14a,14b-hexadecahydropicene-2-carboxamide]
- inhibition at 10 µM [1]: ≥ 80%
- inhibition at 10 µM [2]: ≥ 80%
- inhibition at 10 µM [3]: 30 to 50%
- inhibition at 10 µM [4]: 30 to 50%
- inhibition at 10 µM [5]: 50 to 80%
- inhibition at 10 µM [6]: 50 to 80%
- inhibition at 10 µM [7]: 50 to 80%
- Kd [8]: 0.56 µM

SMILES: CO[C@]1(C)C(=O)C(=O)C=C2C1=CC=C1[C@@]2(C)CC[C@@]2(C)[C@@H]3C[C@](C)(C(N)=O)CC[C@]3(C)CC[C@]12C [Compound A9, (2R,4aS,6aS,9S,12bR,14aS,14bR)-9-methoxy-2,4a,6a,9,12b,14a-hexamethyl-10,11-dioxo-1,2,3,4,4a,5,6,6a,9,10,11,12b,13,14,14a,14b-hexadecahydropicene-2-carboxamide]
- inhibition at 10 µM [1]: ≥ 80%
- inhibition at 10 µM [2]: ≥ 80%
- inhibition at 10 µM [3]: 50 to 80%
- inhibition at 10 µM [4]: 30 to 50%
- inhibition at 10 µM [5]: 30 to 50%
- inhibition at 10 µM [6]: 50 to 80%
- inhibition at 10 µM [7]: 50 to 80%
- Kd [8]: 0.89 µM

SMILES: CO[C@@]1(C)C2=CC=C3[C@@](C)(CC[C@@]4(C)[C@@H]5C[C@](C)(C(N)=O)CC[C@]5(C)CC[C@]34C)C2=CC(=O)[C@@H]1O [Compound A55, (2R,4aS,6aS,9S,10R,12bR,14aS,14bR)-10-Hydroxy-9-methoxy-2,4a,6a,9,12b,14a-hexamethyl-11-oxo-1,2,3,4,4a,5,6,6a,9,10,11,12b,13,14,14a,14b-hexadecahydropicene-2-carboxamide]
- inhibition at 10 µM [1]: 50 to 80%
- inhibition at 10 µM [2]: 50 to 80%
- inhibition at 10 µM [3]: ≥ 80%
- inhibition at 10 µM [4]: 50 to 80%
- inhibition at 10 µM [5]: 30 to 50%
- inhibition at 10 µM [6]: ≥ 80%
- inhibition at 10 µM [7]: ≥ 80%

SMILES: CO[C@@]1(C)C2=CC=C3[C@@](C)(CC[C@@]4(C)[C@@H]5C[C@](C)(C(=O)N6CCOCC6)CC[C@]5(C)CC[C@]34C)C2=CC(=O)[C@@H]1O [Compound A56, (3R,4S,6bS,8aS,11R,12aR,12bS,14aR)-3-hydroxy-4-methoxy-4,6b,8a,11,12b,14a-hexamethyl-11-(morpholine-4-carbonyl)-4,6b,7,8,8a,9,10,11,12,12a,12b,13,14,14a-tetradecahydropicen-2(3H)-one]
- inhibition at 10 µM [1]: 50 to 80%
- inhibition at 10 µM [2]: 50 to 80%
- inhibition at 10 µM [3]: ≥ 80%
- inhibition at 10 µM [4]: ≥ 80%
- inhibition at 10 µM [5]: 30 to 50%
- inhibition at 10 µM [6]: ≥ 80%
- inhibition at 10 µM [7]: ≥ 80%

SMILES: CO[C@@]1(C)C2=CC=C3[C@@](C)(CC[C@@]4(C)[C@@H]5C[C@](C)(C(=O)NO)CC[C@]5(C)CC[C@]34C)C2=CC(=O)[C@@H]1O [Compound A57, (2R,4aS,6aS,9S,10R,12bR,14aS,14bR)—N,10-dihydroxy-9-methoxy-2,4a,6a,9,12b,14a-hexamethyl-11-oxo-1,2,3,4,4a,5,6,6a,9,10,11,12b,13,14,14a,14b-hexadecahydropicene-2-carboxamide]
- inhibition at 10 µM [1]: 50 to 80%
- inhibition at 10 µM [2]: 50 to 80%
- inhibition at 10 µM [3]: ≥ 80%
- inhibition at 10 µM [4]: ≥ 80%
- inhibition at 10 µM [5]: 30 to 50%
- inhibition at 10 µM [6]: ≥ 80%
- inhibition at 10 µM [7]: ≥ 80%

SMILES: CO[C@@]1(C)C2=CC=C3[C@@](C)(CC[C@@]4(C)[C@@H]5C[C@](C)(C(N)=O)CC[C@]5(C)CC[C@]34C)C2=CC(=O)/C1=C\C#N [Compound A59, (2R,4aS,6aS,9S,10Z,12bR,14aS,14bR)-10-(cyanomethylidene)-9-methoxy-2,4a,6a,9,12b,14a-hexamethyl-11-oxo-1,2,3,4,4a,5,6,6a,9,10,11,12b,13,14,14a,14b-hexadecahydropicene-2-carboxamide]
- inhibition at 10 µM [1]: ≥ 80%
- inhibition at 10 µM [2]: ≥ 80%
- inhibition at 10 µM [3]: ≥ 80%
- inhibition at 10 µM [4]: ≥ 80%
- inhibition at 10 µM [5]: ≥ 80%
- inhibition at 10 µM [6]: ≥ 80%
- inhibition at 10 µM [7]: ≥ 80%

SMILES: CO[C@@]1(C)C2=CC=C3[C@@](C)(CC[C@@]4(C)[C@@H]5C[C@](C)(C#N)CC[C@]5(C)CC[C@]34C)C2=CC(=O)[C@@H]1O [Compound A62, (2R,4aS,6aS,9S,10R,12bR,14aS,14bR)-10-hydroxy-9-methoxy-2,4a,6a,9,12b,14a-hexamethyl-11-oxo-1,2,3,4,4a,5,6,6a,9,10,11,12b,13,14,14a,14b-hexadecahydropicene-2-carbonitrile]
- inhibition at 10 µM [1]: 30 to 50%
- inhibition at 10 µM [2]: < 30%
- inhibition at 10 µM [3]: ≥ 80%
- inhibition at 10 µM [4]: 30 to 50%
- inhibition at 10 µM [5]: 30 to 50%
- inhibition at 10 µM [6]: 30 to 50%
- inhibition at 10 µM [7]: ≥ 80%
